From article PMC9895061 (Signal Transduction and Targeted Therapy, 2023)
Where two headings read alike, the source gives them in different places.

Key:
PRDX1 [1] = target: T1, PRDX1 (Homo sapiens, UniProt Q06830); assay: Trx-TrxR-NADPH coupling peroxiredoxin activity assay, PRDX1; type: biochemical
T1 sequence (Q06830 1-199): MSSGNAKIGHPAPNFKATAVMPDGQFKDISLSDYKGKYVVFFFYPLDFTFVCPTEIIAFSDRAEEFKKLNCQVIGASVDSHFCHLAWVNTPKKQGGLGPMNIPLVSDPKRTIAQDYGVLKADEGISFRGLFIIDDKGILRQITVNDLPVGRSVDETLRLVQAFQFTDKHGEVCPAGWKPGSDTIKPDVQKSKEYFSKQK

PRDX4 = target: T2, PRDX4 (Homo sapiens, UniProt Q13162); assay: Trx-TrxR-NADPH coupling peroxiredoxin activity assay, PRDX4; type: biochemical; conditions: for inhibition of the peroxidase activity of PRDX4 (in words): recombinant PRDX4
T2 sequence (Q13162 38-271): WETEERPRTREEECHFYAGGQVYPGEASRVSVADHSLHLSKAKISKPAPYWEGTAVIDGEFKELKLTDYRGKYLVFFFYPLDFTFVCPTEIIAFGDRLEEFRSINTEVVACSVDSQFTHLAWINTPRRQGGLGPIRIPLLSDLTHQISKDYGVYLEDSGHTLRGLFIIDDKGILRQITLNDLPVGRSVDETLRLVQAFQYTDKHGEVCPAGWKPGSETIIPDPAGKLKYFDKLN

[2] = target: T3, recombinant wild type PRDX1 (Homo sapiens, UniProt Q06830); assay: Surface plasmon resonance (SPR) assay; type: binding
T3 sequence (Q06830 1-199): T1 sequence (Q06830 1-199)

PRDX1 [3] = target: T1, PRDX1; assay: Determination of Kinact and Ki for inhibition of PRDX1's peroxidase activity; type: biochemical
SW620 cells = assay: Cell viability by trypan blue staining, SW620; conditions: for viability at 0.5 µM: Homo sapiens, SW-620, 24 h, read-out: cells viability, SW620
Experimental: Total cell number and viability were counted with trypan blue staining. To measure apoptosis, cells were harvested and followed by flow cytometric analysis using the Annexin V-FITC / PI apoptosis detection kit according to the manufacturer’s protocol. Cell apoptosis was analyzed by FlowJo software.
e, f Cell viability were measured by trypan-blue staining.

gNS SW620 cells = assay: Proliferation IC50 in scrambled (gNS) SW620 cells; type: cell-based; conditions: Homo sapiens, SW-620, 24 h, read-out: IC50 against the proliferation of scrambled (gNS) SW620 cells
Experimental: To generate PRDX1 knockdown cell lines, gRNA targeting […] was cloned into the vector pHBLV-U6-gRNA-EF1-CAS9-PURO from HanBio. The gRNA, psPAX2, and pMD2·G plasmids were mixed and co-transfected into HEK293T cells using Lipofectamine 2000 (Thermo Fisher Scientific). Medium with lentiviruses was collected and filtered through 0.45 μm filters at 48 h after transfection. Lentiviruses was used to infect the indicated cells with 8 μg/mL polybrene (Sigma-Aldrich) for 2 days. The infected cells were selected in medium containing 2 μg/mL puromycin (Sigma-Aldrich) for 3 days, and PRDX1 protein expression level were examined by western blot.
SW620 or HCT116 cells were seeded into 96-well plate overnight at 5000 cells per well or 4000 cells per well respectively. […] Cell numbers were assessed using the CCK-8 reagent at OD 450. The IC50 values were calculated by fitting the data points with the dose-response function in GraphPad.

nude mice [4] = assay: Acute toxicity test (percent survival within 2 weeks); type: in vivo; conditions: for Survival number, female (n=4) / Survival number, male (n=4) / Survival rate, female (n=4) / Survival rate, male (n=4): within 2 weeks
Experimental: For acute toxicity test, Nude mice were randomly divided into five groups (four female mice and four male mice in each group). […] The percent survival within 2 weeks was recorded in Supplementary Table 2 and survival curve.

nude mice [5] = assay: Chronic toxicity test, routine blood test; conditions: 2 mg/kg, 5 days per week for two weeks

| Structure (SMILES) | IC50 (PRDX1 [1]) [µM] | IC50 (PRDX4) [µM] | inhibition of the peroxidase activity of PRDX4 (in words) (PRDX4) | Kd [2] [µM] | Ki (PRDX1 [3]) [µM] | viability at 0.5 µM (SW620 cells) [%] | IC50 (gNS SW620 cells) [µM] | Survival number, female (n=4) (nude mice [4]; 10 mg/kg intraperitoneally) | Survival number, male (n=4) (nude mice [4]; 10 mg/kg intraperitoneally) | Survival rate, female (n=4) (nude mice [4]; 10 mg/kg intraperitoneally) [%] | Survival rate, male (n=4) (nude mice [4]; 10 mg/kg intraperitoneally) [%] | Survival number, female (n=4) (nude mice [4]; 20 mg/kg intraperitoneally) | Survival number, male (n=4) (nude mice [4]; 20 mg/kg intraperitoneally) | Survival rate, female (n=4) (nude mice [4]; 20 mg/kg intraperitoneally) [%] | Survival rate, male (n=4) (nude mice [4]; 20 mg/kg intraperitoneally) [%] | survival, all mice (male and female), in words (nude mice [4]; 20 mg/kg, within two weeks) | count and proportion of monocyte and neutrophil, routine blood test (in words) (nude mice [5]) | IC50 (PRDX4; recombinant PRDX4, 1.5 h incubation, read-out: IC50 against the peroxidase activity of PRDX4) [µM] | cell viability at high concentrations, SW620 (in words) (SW620 cells; 1, 2 μM, 24 h, trypan blue) | survival, all mice (male and female) (nude mice [4]; 10 mg/kg, within two weeks) [%] |
| --- | --- | --- | --- | --- | --- | --- | --- | --- | --- | --- | --- | --- | --- | --- | --- | --- | --- | --- | --- | --- |
| CC1=C(O)C(=O)C=C2C1=CC=C1[C@@]2(C)CC[C@@]2(C)[C@@H]3C[C@](C)(C(=O)O)CC[C@]3(C)CC[C@]12C [Celastrol, reference compound] | 0.29 ± 0.01 | > 100 | no obvious inhibitory effect | 0.36 | 0.95 ± 0.086 | ~80 | 0.634 ± 0.0113 | 0 | 1 | 0 | 25 | 0 | 0 | 0 | 0 | All the mice died | higher than the reference intervals |  |  |  |
| COC(=O)[C@H](C)NC(=O)N[C@]1(C)CC[C@]2(C)CC[C@]3(C)C4=CC=C5C(=CC(=O)C(O)=C5C)[C@]4(C)CC[C@@]3(C)[C@@H]2C1 [19-048, Methyl (((2R,4aS,6aS,12bR,14aS,14bR)-10-hydroxy-2,4a,6a,9,12b,14a-hexamethyl-11-oxo-1,2,3,4,4a,5,6,6a,11,12b,13,14,14a,14b-tetradecahydropicen-2-yl)carbamoyl)-L-alaninate] |  |  | no obvious inhibition |  |  | ~80 | 0.529 ± 0.00669 | 4 | 4 | 100 | 100 | 0 | 4 | 0 | 100 |  |  | > 100 | significantly decreased cell viability | 100 |
